The values that follow come from patent publication US20240261302A1, “METHODS OF TREATING NEURODEGENERATIVE DISEASES OR CONDITIONS” (FloraScience Inc., priority 2023, published 2024).

As usually defined, the EC50 is the concentration needed to bring the measured effect to its halfway point.

For test [1], the system named is HT22 cells. Kind of test: Oxytosis/ferroptosis assay with erastin (Table 2). It counts as cell-based. The settings on record: Mus musculus, HT-22; erastin as inducer; method not given; read-out: Observed EC50 erastin.
The test system of test [2] is HT22 cells. The test is described as follows: Ferroptosis Assay (RSL3-induced cell death, MTT). It counts as cell-based, mouse. The settings on record: Mus musculus, HT-22; HT22 cells, 1 hr pretreatment, 50 nM RSL3, 16 hr, MTT; read-out: Observed EC50 RSL3. On the procedure:
Ferroptosis Assay: HT22 cells were seeded at 3,000 cells/well in 96-well tissue culture plates in DMEM plus 10% FBS and 1% antibiotics. After 24 hr of plating, the cells were pretreated with different concentrations of test compounds or a vehicle control for 1 hr followed by coincubation with 50 nM RSL3 to induce the cell death cascade. After 16 hr of treatment, cell viability was measured by the MTT assay. Optical absorbance was measured at 570 nm on a SpectraMax M5 microplate reader. Samples were analyzed in eight to sixteen wells per independent experiment (n=8-16). Results were presented as the percentage of the controls with vehicle alone.

On to `CCCCCc1cc(O)c(-c2cccc(C)c2)c(O)c1` [4-DI-CBND, 3′-methyl-4-pentyl-[1,1′-biphenyl]-2,6-diol], for which the EC50 with HT22 cells [1] is 9.6 µM; with HT22 cells [2], 4200 nM.
The corresponding values for `CCCCCc1cc(O)c2c(c1)OC(C)(C)c1ccc(CO)cc1-2` [11-OH-CBN, 9-(hydroxymethyl)-6,6-dimethyl-3-pentyl-6H-benzo[c]chromen-1-ol] are 4.7 µM and 1300 nM.
In the same order, the values of `C=C(C)[C@@H]1CCC(C)=C[C@H]1c1c(O)cc(O)cc1CCCCC` [Abn-CBD, 4-[(1R,6R)-3-methyl-6-(1-methylethenyl)-2-cyclohexen-1-yl]-5-pentyl-1,3-benzenediol] are 8 µM and 3900 nM.
On to `CCCc1cc(O)cc2c1-c1cc(C)ccc1C(C)(C)O2` [Abn-CBNV, 6,6,9-trimethyl-1-propyl-6H-benzo[c]chromen-3-ol], for which the EC50 is 9.5 µM in the test with HT22 cells [1] and 4900 nM with HT22 cells [2].
`CCCCCc1cc(O)c2c(c1)OC(C)(CCC=C(C)C)C=C2` (stereo not drawn) [CBC, 2-Methyl-2-(4-methylpent-3-enyl)-7-pentyl-5-chromenol]: the EC50 in the test with HT22 cells [1] turned out to be 8.7 µM; with HT22 cells [2], 1100 nM.
In the same order, the values of `C=C(C)[C@@H]1CCC(C)=C[C@H]1c1c(O)cc(CCCCC)cc1O` [CBD, 2-[(1R,6R)-6-Isopropenyl-3-methylcyclohex-2-en-1-yl]-5-pentylbenzene-1,3-diol] are 8.8 µM and 860 nM.
The corresponding values for `C=C(C)C1CCC(C)=CC1c1c(OC(C)=O)cc(CCCCC)cc1OC(C)=O` (stereo not drawn) [CBD-(OAc)2, 5′-methyl-4-pentyl-2′-(prop-1-en-2-yl)-1′,2′,3′,4′-tetrahydro-[1,1′-biphenyl]-2,6-diyl diacetate] are 9.1 µM and 2400 nM.
The corresponding values for `C=C(C)[C@@H]1CCC(C)=C[C@H]1c1c(O)cc(CCCCC)c(C(=O)O)c1O` [CBDA, (1′R,2′R)-2,6-Dihydroxy-5′-methyl-4-pentyl-2′-(prop-1-en-2-yl)-1′,2′,3′,4′-tetrahydro[1,1′-biphenyl]-3-carboxylic acid] are greater than 10 µM and 9300 nM.
On to `C=C(C)[C@@H]1CCC(C)=C[C@H]1c1c(O)cc(CCC)cc1O` [CBDV, 2-[(1R,6R)-6-Isopropenyl-3-methylcyclohex-2-en-1-yl]-5-propylbenzene-1,3-diol], for which the EC50 is 3.8 µM with HT22 cells [1] and 1000 nM in the test on HT22 cells [2].
With `C=C(C)[C@@H]1CC[C@](C)(O)[C@H]2Oc3cc(CCCCC)cc(O)c3[C@@H]12` [CBE, (5aS,6S,9R,9aR)-6-methyl-3-pentyl-9-prop-1-en-2-yl-7,8,9,9a-tetrahydro-5aH-dibenzofuran-1,6-diol], the values for the EC50 in the test on HT22 cells [1] and in the test on HT22 cells [2] were greater than 10 µM and greater than 10000 nM, respectively.
Turning to `CCCCCc1cc(O)c2c(c1)oc1c(C)ccc(C(C)C)c12` [CBF, 5-isopropyl-8-methyl-2-pentyl-9-oxa-4-fluorenol], the values for the EC50 with HT22 cells [1] and with HT22 cells [2] were 0.31 µM and 150 nM, respectively.
In the same order, the values of `CCCCCc1cc(O)c(C/C=C(\C)CCC=C(C)C)c(O)c1` [CBG, 2-[(2E)-3,7-Dimethylocta-2,6-dienyl]-5-pentyl-benzene-1,3-diol] are 10.8 µM and 3200 nM.
For `CCCCCc1cc(O)c(C/C=C(\C)CCC=C(C)C)c(O)c1C(=O)O` [CBGA, 3-[(2E)-3,7-Dimethylocta-2,6-dien-1-yl]-2,4-dihydroxy-6-pentylbenzoic acid], the EC50 in the test with HT22 cells [1] is greater than 10 µM; in the test on HT22 cells [2], greater than 10000 nM.
In the same order, the values of `CCCCCc1cc(O)c2c(c1)OC1(C)CCC3C1C2C3(C)C` (stereo not drawn) [CBL, (1aR-(1a alpha,3a alpha,8b alpha,8calpha))-1a,2,3,3a,8b,8c-hexahydro-1,1,3a-trimethyl-6-pentyl-1H-4-oxabenzo(f)-cyclobut(cd)inden-8-ol] are 3.3 µM and 770 nM.
In the same order, the values of `Cc1cc(O)c2c(c1)OC(C)(C)c1ccc(C)cc1-2` [CBN-C1, 3-methyl-6,6,9-trimethyl-6H-benzo[c]chromen-1-ol] are 6.9 µM and 2200 nM.
